According to US20100035873A1 (Pfizer Inc, priority 2008, published 2010):

What follows are compounds tested against T1, human kappa opioid receptor (Homo sapiens, UniProt P41145) (assay: Binding assay, [3H]diprenorphine displacement on membranes from CHO cells (kappa assay)). Settings: membranes from CHO cells expressing human kappa opioid receptor, ranges given when more than one data point.
T1 construct: expressed in transfected cells; host or cells: CHO cells
Protocol: Binding assays on membranes from CHO cells expressing either human kappa, mu or delta opioid receptors were performed according to standard procedures. Briefly, frozen cell paste (70-80-mgs per 96 well plate) is homogenized in 50 mM Tris HCl buffer (pH 7.4 @ 4 degrees C.) containing 2.0 mM MgCl2 using a Polytron and spun in a centrifuge at 40,000 g for ten minutes. The final pellet is resuspended in assay buffer (50 mM Tris HCl buffer (pH 7.4) containing 1 mM EDTA, 5 mM MgCl2). Incubations were initiated by the addition of tissue to 96-well plates containing test drugs and 0.4-1 nM [3H]diprenorphine in a final volume of 250 ul). Non-specific binding was determined by radioligand binding in the presence of a saturating concentration of naltrexone (10 uM). After one hour incubation period at room temperature, assay samples were rapidly filtered through Whatman GF/B filters and rinsed with ice-cold 50 mM Tris buffer (pH 7.4). Membrane bound [3H]diprenorphine levels were determined by liquid scintillation counting of the filters in BetaScint. […] Ki values were calculated according to the Cheng Prusoff equation, Ki=IC50/(1+(L/Kd)), where L is the concentration of the radioligand used in the experiment and the Kd value is the dissociation constant for the radioligand (determined previously by saturation analysis).

T1 sequence (P41145 whole entry): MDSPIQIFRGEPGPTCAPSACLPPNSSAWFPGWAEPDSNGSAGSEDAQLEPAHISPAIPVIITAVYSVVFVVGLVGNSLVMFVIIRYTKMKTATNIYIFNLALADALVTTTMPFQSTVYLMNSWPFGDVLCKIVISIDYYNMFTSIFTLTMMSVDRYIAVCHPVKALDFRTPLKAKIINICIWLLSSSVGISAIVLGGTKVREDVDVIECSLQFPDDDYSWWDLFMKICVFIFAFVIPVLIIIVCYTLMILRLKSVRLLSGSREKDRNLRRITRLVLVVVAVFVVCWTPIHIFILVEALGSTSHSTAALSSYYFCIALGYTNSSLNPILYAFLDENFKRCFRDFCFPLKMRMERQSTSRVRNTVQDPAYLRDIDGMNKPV

| Compound | Ki [nM] |
| --- | --- |
| C[C@@H]1COCCN1S(=O)(=O)c1ccccc1-c1ccc(CNCCC(C)(C)C)c(F)c1 [Example 4o] | 2.11 to 5.08 |
| CC(C)CNCc1ccc(-c2ccccc2S(=O)(=O)N(C)C(C)C)cc1 [Example 4v, 4′-(Isobutylamino-methyl)-biphenyl-2-sulfonic acid isopropyl-methyl-amide] | 6.13 |
| O=S(=O)(c1ccccc1-c1ccc(CN2C[C@H]3CCC[C@@H]2C3)c(F)c1)N1CCCC1 [Example 4m, (1S,5R)-6-[3-Fluoro-2′-(pyrrolidine-1-sulfonyl)-biphenyl-4-ylmethyl]-6-aza-bicyclo[3.2.1]octane] | 1.41 to 6.84 |
| C[C@@H]1COCCN1S(=O)(=O)c1ccccc1-c1ccc(CNC2CC3CCC2C3)c(F)c1 (stereo partly drawn) [Example 4p, Bicyclo[2.2.1]hept-2-yl-[3-fluoro-2′-((R)-3-methyl-morpholine-4-sulfonyl)-biphenyl-4-ylmethyl]-amine] | 2.68 to 6.78 |
| O=S(=O)(c1ccccc1-c1ccc(CNC2CCOC2)cc1)N1CCCC1 (centres unmarked) [Example 4i, [2′-(Pyrrolidine-1-sulfonyl)-biphenyl-4-ylmethyl]-(tetrahydro-furan-3-yl)-amine] | 6.59 to 13 |
| COc1cc(-c2ccccc2S(=O)(=O)N2CCCC2)ccc1CNCC(C)C [Example 4y, Isobutyl-[3-methoxy-2′-(pyrrolidine-1-sulfonyl)-biphenyl-4-ylmethyl]-amine] | 12.5 to 24.8 |
| CC(C)(C)CCNCc1ccc(-c2ncccc2S(=O)(=O)N2CCCC2)cc1 [Example 4w, (3,3-Dimethyl-butyl)-{4-[3-(pyrrolidine-1-sulfonyl)-pyridin-2-yl]-benzyl}-amine] | 10.3 |
| CC(C)CNCc1ccc(-c2ccccc2S(=O)(=O)N2CCC[C@H]2C)cc1F [Example 4r, [3-Fluoro-2′-((R)-2-methyl-pyrrolidine-1-sulfonyl)-biphenyl-4-ylmethyl]-isobutyl-amine] | 3.46 to 8.28 |
| CC(C)CNCc1ccc(-c2ccccc2S(=O)(=O)N2CCC[C@H]2C)cc1 [Example 4j, Isobutyl-[2′-((R)-2-methyl-pyrrolidine-1-sulfonyl)-biphenyl-4-ylmethyl]-amine] | 0.9 to 2.61 |
| O=S(=O)(c1ccccc1-c1ccc(CNC2C[C@H]3CC[C@@H]2C3)cc1)N1CCCC1 (stereo partly drawn) [Example 4a, (1R,4S)-Bicyclo[2.2.1]hept-2-yl-[2′-(pyrrolidine-1-sulfonyl)-biphenyl-4-ylmethyl]-amine] | 0.58 to 0.66 |
| CC1(C)CCCN(Cc2ccc(-c3ccccc3S(=O)(=O)N3CCCC3)cc2)C1 [Example 4e, 3,3-Dimethyl-1-[2′-(pyrrolidine-1-sulfonyl)-biphenyl-4-ylmethyl]-piperidine] | 5.03 to 6.34 |
| O=S(=O)(c1ncccc1-c1ccc(CNC2CC3CCC2C3)cc1)N1CCCC1 [Example 4t, (5S,6R)-Bicyclo[2.2.1]hept-2-yl-{4-[2-(pyrrolidine-1-sulfonyl)-pyridin-3-yl]-benzyl}-amine] | 5.76 |
| O=S(=O)(c1cccnc1-c1ccc(CNC2C[C@@H]3CC[C@H]2C3)cc1)N1CCCC1 (stereo partly drawn) [Example 4x, (1S,4R)-Bicyclo[2.2.1]hept-2-yl-{4-[3-(pyrrolidine-1-sulfonyl)-pyridin-2-yl]-benzyl}-amine] | 12.3 |
| C[C@@H]1COCCN1S(=O)(=O)c1ccccc1-c1ccc(CNCCC(C)(C)C)cc1 [Example 4k, (3,3-Dimethyl-butyl)-[2′-((R)-3-methyl-morpholine-4-sulfonyl)-biphenyl-4-ylmethyl]-amine] | 1.19 to 2.34 |
